Starred links: 1 amine or outer side, 2 acyl side, 3 side chain; linkers in the order of their positions; H or OH if unused. Non-standard residues stand in square brackets, D forms with d. Residues, ends and D or L forms follow the SMILES beside them. Groups on a side chain read outwards from the residue. *: point of attachment. Dip = N[C@H](C(=O)O)C(c1ccccc1)c1ccccc1; γGlu = O=C(O)[C@H](CCC(=O)[*:2])N[*:1]; Stearoyl = CCCCCCCCCCCCCCCCCC(=O)*; αMeF = C[C@](N)(Cc1ccccc1)C(=O)O; Cha = N[C@@H](CC1CCCCC1)C(=O)O; PEG2 = NCCOCCOCCC(=O)O; Aib = CC(C)(N)C(=O)O
Assays:
[1] = Proteolytic resistance to FasSSIF/Pancreatin; format: in vitro ADME; conditions: simulated intestinal fluid
Method: A fresh suspension of FasSSIF/P (Fasted-State Simulated Intestinal Fluid+USP Pancreatin®) was prepared according to that described by Galia, Nicolaides, Hörter, Löbenberg, Reppas and Dressman: Pharm. Res. 15 (1998) 698-705, and USP XL requirements. The resulting preparation was used immediately without storage.
Peptide for evaluation (1.0 mg) was dissolved in pre-warmed FasSSIF without Pancreatin® (200 μL). To this fresh FasSSIF/Pancreatin® (100 μL) was added to initiate potential proteolysis. Following momentary vortexing of the reaction tube the mixture was incubated at 37° C. in a thermostatic water bath for the duration of the experiment. 25 μL aliquot of the co-incubated peptide-enzyme mixture was periodically withdrawn (t=0, 5, 10 15 and 30 min) and quenched immediately by addition to a solution of 10% TFA in 1:1 water/acetonitrile (75 μL) to arrest proteolytic activity. Quenched samples were centrifuged (7800 RPM, 3 mins) to pellet solids and 10 μL aliquots of the supernatant solution were analyzed using analytical RP-HPLC as follows: Analytical RP-HPLC method: Agilent Polaris C8-A column (4.6×100 mm, 3 micron) eluted with a linear binary gradient of 10-90% MeCN (0.1% TFA v/v) in water (0.1% TFA v/v) over either 10 or 15 mins at 1.5 mL min^−1 at 40° C. with detection by UV absorption at 210 nm. Manual integration (AUC) allowed estimation of remaining intact peptide over the time course of the experiment.

[2] = target: human GLP-1 receptor (hGLP-1R) (Homo sapiens, UniProt P43220); test: cAMP production (HTRF) in CHO cells expressing hGLP-1R; format: cell-based; design: expressed in transfected cells; conditions: for EC50: Table 6, peptides modified at position 17, cAMP in CHO hGLP-1R cells, geometric mean, read-out: hGLP-1R EC50; for % Relative Potency Ratio: Table 6, % GLP-1R activity relative to GLP-1 / % GlucR activity relative to glucagon
Summary of the method: (§1)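 Potency values represent EC50 from 4-parameter logistic curves of HTRF % Delta F signal. Receptor-expressing CHO cells (hGCGR 2×10^5 cells/mL, hGLP-1R 1×10^5 cells/mL) were exposed for 30 min at room temperature before two-step cAMP detection.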

[3] = Mouse acute food intake study; format: in vivo; conditions: male C57Bl/6 mice, s.c., dose 10 nmol/kg, cumulative food intake at 24 hr vs vehicle
Summary of the method: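 Single-housed male C57Bl/6 mice (8-9 weeks on arrival), chow-fed, acclimated and sham-dosed ≥2 times, were fasted 6-8 h, then given vehicle or peptide subcutaneously at 5 mL/kg 1-2 h before lights out. Food intake was recorded automatically over 48 h and analysed as cumulative intake.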

[4] = target: human glucagon receptor (hGCGR) (Homo sapiens, UniProt P47871); test: cAMP production (HTRF) in CHO cells expressing hGCGR; format: cell-based; design: expressed in transfected cells; conditions: Table 6, peptides modified at position 17; cAMP in CHO hGCGR cells; geometric mean; read-out: hGluc-R EC50
Summary of the method: as §1

Chain of human GLP-1 receptor (hGLP-1R) (P43220 24-463): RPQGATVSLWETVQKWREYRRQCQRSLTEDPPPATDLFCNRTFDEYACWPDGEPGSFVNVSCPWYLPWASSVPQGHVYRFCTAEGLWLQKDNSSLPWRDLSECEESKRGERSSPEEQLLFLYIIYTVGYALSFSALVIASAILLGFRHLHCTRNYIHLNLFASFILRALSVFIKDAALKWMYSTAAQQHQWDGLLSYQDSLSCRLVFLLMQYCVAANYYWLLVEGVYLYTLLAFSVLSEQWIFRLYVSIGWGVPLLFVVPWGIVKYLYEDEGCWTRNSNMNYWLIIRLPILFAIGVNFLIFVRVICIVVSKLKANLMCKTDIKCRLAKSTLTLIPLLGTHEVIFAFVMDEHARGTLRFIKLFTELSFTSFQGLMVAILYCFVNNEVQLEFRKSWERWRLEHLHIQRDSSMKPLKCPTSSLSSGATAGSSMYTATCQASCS
Chain of human glucagon receptor (hGCGR) (P47871 26-477): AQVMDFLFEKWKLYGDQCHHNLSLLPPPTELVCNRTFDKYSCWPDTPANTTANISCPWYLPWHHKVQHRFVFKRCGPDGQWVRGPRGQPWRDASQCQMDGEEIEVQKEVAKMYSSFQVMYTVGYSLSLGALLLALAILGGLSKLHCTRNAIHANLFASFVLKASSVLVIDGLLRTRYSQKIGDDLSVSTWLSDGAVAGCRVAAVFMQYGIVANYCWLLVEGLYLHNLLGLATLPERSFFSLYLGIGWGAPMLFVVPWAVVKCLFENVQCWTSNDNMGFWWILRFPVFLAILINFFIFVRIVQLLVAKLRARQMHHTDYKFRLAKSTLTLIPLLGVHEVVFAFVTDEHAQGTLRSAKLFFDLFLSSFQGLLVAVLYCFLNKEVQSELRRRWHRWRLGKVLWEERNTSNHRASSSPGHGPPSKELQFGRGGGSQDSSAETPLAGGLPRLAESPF

SMILES	remaining at 5 min, 3.3 mg/mL [1]	remaining at 10 min, 3.3 mg/mL [1]	remaining at 0.25 h, 3.3 mg/mL [1]	remaining at 0.5 h, 3.3 mg/mL [1]	EC50 [2]	% Relative Potency Ratio [2]	EC50 [4]	24 hr % Vehicle Food Intake [3]
CCCCCCCCCCCCCCCCCC(=O)N[C@@H](CCC(=O)N[C@@H](CCC(=O)NCCOCCOCCC(=O)NCCOCCOCCC(=O)NCCCC[C@H](NC(=O)[C@H](CO)NC(=O)[C@H](CC(=O)O)NC(=O)[C@H](CC(C)C)NC(=O)[C@@H](NC(=O)[C@H](CCCCN)NC(=O)[C@H](CO)NC(=O)[C@@H](NC(=O)[C@H](CC(=O)O)NC(=O)[C@H](CO)NC(=O)[C@@H](NC(=O)[C@](C)(Cc1ccccc1)NC(=O)[C@H](CO)NC(=O)CNC(=O)[C@H](CCC(N)=O)NC(=O)[C@H](CO)NC(=O)[C@@H](N)Cc1c[nH]cn1)[C@@H](C)O)C(C)C)C(c1ccccc1)c1ccccc1)C(=O)N[C@@H](C)C(=O)N[C@@H](C)C(=O)N[C@@H](CCC(N)=O)C(=O)N[C@@H](CC(=O)O)C(=O)N[C@@](C)(Cc1ccccc1)C(=O)N[C@H](C(=O)N[C@@H](CCC(=O)O)C(=O)NC(C)(C)C(=O)N[C@@H](CC(C)C)C(=O)N[C@H](C(=O)N[C@@H](CO)C(=O)NCC(N)=O)[C@@H](C)CC)C(C)C)C(=O)O)C(=O)O [Peptide 48] (H-HSQGS[αMeF]TSDVSK[Dip]LDSK([PEG2-PEG2-γGlu-γGlu-Stearoyl])AAQD[αMeF]VE[Aib]LISG-NH2; N-terminus assumed)	–	–	–	94%	19.9 pM	4.3	43.2 pM	–
CCCCCCCCCCCCCCCCCC(=O)N[C@@H](CCC(=O)N[C@@H](CCC(=O)NCCOCCOCCC(=O)NCCOCCOCCC(=O)NCCCC[C@H](NC(=O)[C@H](CO)NC(=O)[C@H](CC(=O)O)NC(=O)[C@H](CC(C)C)NC(=O)[C@@H](NC(=O)[C@H](CCCCN)NC(=O)[C@H](CO)NC(=O)[C@@H](NC(=O)[C@H](CC(=O)O)NC(=O)[C@H](CO)NC(=O)[C@@H](NC(=O)[C@](C)(Cc1ccccc1)NC(=O)[C@H](CO)NC(=O)CNC(=O)[C@H](CCC(N)=O)NC(=O)[C@H](CO)NC(=O)[C@@H](N)Cc1c[nH]cn1)[C@@H](C)O)C(C)C)C(c1ccccc1)c1ccccc1)C(=O)N[C@@H](C)C(=O)N[C@@H](C)C(=O)N[C@@H](CCC(N)=O)C(=O)N[C@@H](CC(=O)O)C(=O)N[C@@](C)(Cc1ccccc1)C(=O)N[C@H](C(=O)N[C@@H](CCC(=O)O)C(=O)NC(C)(C)C(=O)N[C@H](C(=O)N[C@H](C(=O)N[C@@H](CCC(=O)O)C(=O)NCC(=O)NCC(N)=O)C(C)C)C(C)C)C(C)C)C(=O)O)C(=O)O [Peptide 53] (H-HSQGS[αMeF]TSDVSK[Dip]LDSK([PEG2-PEG2-γGlu-γGlu-Stearoyl])AAQD[αMeF]VE[Aib]VVEGG-NH2)	–	–	–	92%	3.03 pM	12.3	18.9 pM	–
CCCCCCCCCCCCCCCCCC(=O)N[C@@H](CCC(=O)N[C@@H](CCC(=O)NCCOCCOCCC(=O)NCCOCCOCCC(=O)NCCCC[C@H](NC(=O)[C@H](CO)NC(=O)[C@H](CC(=O)O)NC(=O)[C@H](CC(C)C)NC(=O)[C@@H](NC(=O)[C@H](CCCCN)NC(=O)[C@H](CO)NC(=O)[C@@H](NC(=O)[C@H](CC(=O)O)NC(=O)[C@H](CO)NC(=O)[C@@H](NC(=O)[C@](C)(Cc1ccccc1)NC(=O)[C@H](CO)NC(=O)CNC(=O)[C@H](CCC(N)=O)NC(=O)[C@H](CO)NC(=O)[C@@H](N)Cc1c[nH]cn1)[C@@H](C)O)C(C)C)[C@@H](C)CC)C(=O)N[C@@H](C)C(=O)N[C@@H](C)C(=O)N[C@@H](CCC(N)=O)C(=O)N[C@@H](CC(=O)O)C(=O)N[C@@](C)(Cc1ccccc1)C(=O)N[C@H](C(=O)N[C@@H](CCC(N)=O)C(=O)NC(C)(C)C(=O)N[C@H](C(=O)N[C@H](C(=O)N[C@@H](CC(N)=O)C(=O)N[C@H](C(N)=O)[C@@H](C)O)[C@@H](C)CC)[C@@H](C)CC)C(C)C)C(=O)O)C(=O)O [Peptide 117] (H-HSQGS[αMeF]TSDVSKILDSK([PEG2-PEG2-γGlu-γGlu-Stearoyl])AAQD[αMeF]VQ[Aib]IINT-NH2; N-terminus assumed)	54%	35%	22%	8%	1.4 pM	2.6	1.85 pM	–

More lines, main results first:

remaining at 5 min, 3.3 mg/mL [1]	remaining at 10 min, 3.3 mg/mL [1]	remaining at 0.25 h, 3.3 mg/mL [1]	remaining at 0.5 h, 3.3 mg/mL [1]	EC50 [2]	% Relative Potency Ratio [2]	EC50 [4]	SMILES	24 hr % Vehicle Food Intake [3]
90%	88%	83%	75%	1.72 pM	2.7	2.38 pM	CCCCCCCCCCCCCCCCCC(=O)N[C@@H](CCC(=O)N[C@@H](CCC(=O)NCCOCCOCCC(=O)NCCOCCOCCC(=O)NCCCC[C@H](NC(=O)[C@H](CO)NC(=O)[C@H](CC(=O)O)NC(=O)[C@H](CC(C)C)NC(=O)[C@@H](NC(=O)[C@H](CCCCN)NC(=O)[C@H](CO)NC(=O)[C@@H](NC(=O)[C@H](CC(=O)O)NC(=O)[C@H](CO)NC(=O)[C@@H](NC(=O)[C@](C)(Cc1ccccc1)NC(=O)[C@H](CO)NC(=O)CNC(=O)[C@H](CCC(N)=O)NC(=O)[C@H](CO)NC(=O)[C@@H](N)Cc1c[nH]cn1)[C@@H](C)O)C(C)C)C(c1ccccc1)c1ccccc1)C(=O)N[C@@H](C)C(=O)N[C@@H](C)C(=O)N[C@@H](CCC(N)=O)C(=O)N[C@@H](CC(=O)O)C(=O)N[C@@](C)(Cc1ccccc1)C(=O)N[C@H](C(=O)N[C@@H](CCC(=O)O)C(=O)NC(C)(C)C(=O)N[C@@H](CC(C)C)C(=O)N[C@@H](C)C(=O)N[C@@H](CC(N)=O)C(=O)N[C@H](C(N)=O)[C@@H](C)O)C(C)C)C(=O)O)C(=O)O [Peptide 47] (H-HSQGS[αMeF]TSDVSK[Dip]LDSK([PEG2-PEG2-γGlu-γGlu-Stearoyl])AAQD[αMeF]VE[Aib]LANT-NH2; N-terminus assumed)	51.4%
–	–	–	91%	18.1 pM	4.6	41.9 pM	CCCCCCCCCCCCCCCCCC(=O)N[C@@H](CCC(=O)N[C@@H](CCC(=O)NCCOCCOCCC(=O)NCCOCCOCCC(=O)NCCCC[C@H](NC(=O)[C@H](CO)NC(=O)[C@H](CC(=O)O)NC(=O)[C@H](CC(C)C)NC(=O)[C@@H](NC(=O)[C@H](CCCCN)NC(=O)[C@H](CO)NC(=O)[C@@H](NC(=O)[C@H](CC(=O)O)NC(=O)[C@H](CO)NC(=O)[C@@H](NC(=O)[C@](C)(Cc1ccccc1)NC(=O)[C@H](CO)NC(=O)CNC(=O)[C@H](CCC(N)=O)NC(=O)[C@H](CO)NC(=O)[C@@H](N)Cc1c[nH]cn1)[C@@H](C)O)C(C)C)C(c1ccccc1)c1ccccc1)C(=O)N[C@@H](C)C(=O)N[C@@H](C)C(=O)N[C@@H](CCC(N)=O)C(=O)N[C@@H](CC(=O)O)C(=O)N[C@@](C)(Cc1ccccc1)C(=O)N[C@H](C(=O)N[C@@H](CCC(=O)O)C(=O)NC(C)(C)C(=O)N[C@@H](CC(C)C)C(=O)N[C@@H](CC(C)C)C(=O)N[C@@H](CC(N)=O)C(=O)N[C@H](C(N)=O)[C@@H](C)O)C(C)C)C(=O)O)C(=O)O [Peptide 51] (H-HSQGS[αMeF]TSDVSK[Dip]LDSK([PEG2-PEG2-γGlu-γGlu-Stearoyl])AAQD[αMeF]VE[Aib]LLNT-NH2; N-terminus assumed)	–
–	–	–	90%	22.7 pM	0.6	6.65 pM	CCCCCCCCCCCCCCCCCC(=O)N[C@@H](CCC(=O)N[C@@H](CCC(=O)NCCOCCOCCC(=O)NCCOCCOCCC(=O)NCCCC[C@H](NC(=O)[C@H](CO)NC(=O)[C@H](CC(=O)O)NC(=O)[C@H](CC(C)C)NC(=O)[C@@H](NC(=O)[C@H](CCCCN)NC(=O)[C@H](CO)NC(=O)[C@@H](NC(=O)[C@H](CC(=O)O)NC(=O)[C@H](CO)NC(=O)[C@@H](NC(=O)[C@](C)(Cc1ccccc1)NC(=O)[C@H](CO)NC(=O)CNC(=O)[C@H](CCC(N)=O)NC(=O)[C@H](CO)NC(=O)[C@@H](N)Cc1c[nH]cn1)[C@@H](C)O)C(C)C)C(c1ccccc1)c1ccccc1)C(=O)N[C@@H](C)C(=O)N[C@@H](C)C(=O)N[C@@H](CCC(N)=O)C(=O)N[C@@H](CC(=O)O)C(=O)N[C@@](C)(Cc1ccccc1)C(=O)N[C@H](C(=O)N[C@@H](CCC(=O)O)C(=O)NC(C)(C)C(=O)N[C@@H](CC1CCCCC1)C(=O)N[C@@H](C)C(=O)N[C@@H](CC(N)=O)C(=O)N[C@H](C(N)=O)[C@@H](C)O)C(C)C)C(=O)O)C(=O)O [Peptide 52] (H-HSQGS[αMeF]TSDVSK[Dip]LDSK([PEG2-PEG2-γGlu-γGlu-Stearoyl])AAQD[αMeF]VE[Aib][Cha]ANT-NH2; N-terminus assumed)	–

From patent publication US20250353891A1 (MEDIMMUNE LIMITED, priority 2022, published 2025)
